Key:
[1] = tested on: Serum Amyloid P-Component (SAP); assay: Disruptor-1 trial: plasma SAP level post versus pre BNC105P infusion (Human CustomMAP, Luminex); type: in vivo
Description: (§1) The objective of the study was to determine the response rate of patients administered BNC105P (vascular disrupting agent) in combination with everolimus (mTOR inhibitor) in patients who had progressed from prior tyrosine kinase inhibitor therapy. In addition, the present inventors determined the improvement in 6-months progression free survival (PFS) with the addition of BNC105P to everolimus (Afinitor). A control group of patients received everolimus alone.
(§2) Patients in the BNC105P in combination with everolimus study group (the “combination arm”) were administered 10 mg oral everolimus daily. On days 1 and 8 of the 21 day cycle period, the patients were administered 16 mg/m^2 BNC105P, which had been determined to be the maximum tolerated dose, by intravenous infusion over a 10 minute period (FIG. 1). Treatment was continued until disease progressed, intolerable toxicity became apparent, or until consent was withdrawn. A control group of patients were administered with everolimus alone.
(§3) Human EDTA plasma samples were taken from patients to quantitatively measure the concentration of 56 analytes from the Human CustomMAP at Myriad RBM (MRBM). […]
(§4) The biomarker levels at each time and the change in biomarker levels were examined. The mean change from pre- to post-infusion was calculated as the mean of C1D1 pre-infusion minus C1D1 post-infusion. […]

[2] = tested on: Sex Hormone-Binding Globulin (SHBG); assay: Disruptor-1 trial: plasma SHBG level post versus pre BNC105P infusion (Human CustomMAP, Luminex); type: in vivo
Description: as §1, §2, §3, §4

[3] = tested on: Stem Cell Factor (SCF); assay: Disruptor-1 trial: plasma SCF level post versus pre BNC105P infusion (Human CustomMAP, Luminex); type: in vivo
Description: as §1, §2, §3, §4

[4] = tested on: Matrix Metalloproteinase-9 (MMP-9); assay: Disruptor-1 trial: plasma MMP-9 level post versus pre BNC105P infusion (Human CustomMAP, Luminex); type: in vivo
Description: as §1, §2, §3, §4

[5] = tested on: Myoglobin (MB); assay: Disruptor-1 trial: plasma Myoglobin level post versus pre BNC105P infusion (Human CustomMAP, Luminex); type: in vivo
Description: as §1, §2, §3, §4

[6] = Maximum tolerated dose of BNC105P in patients; type: in vivo, Human; conditions: intravenous infusion over 10 minutes, days 1 and 8 of 21 day cycle, with 10 mg oral everolimus daily
Procedure: as §2

[7] = tested on: tumour endothelial cells (activated) and normal endothelial cells (quiescent); assay: Potency against activated versus quiescent endothelial cells; type: cell-based
[8] = tested on: tubulin; assay: Tubulin polymerisation inhibition; type: biochemical
[9] = plasma, renal cell carcinoma patients, 16 mg/m^2 BNC105P i.v. infusion plus 10 mg oral everolimus daily, post versus pre infusion
[10] = post/baseline plasma ratio after BNC105P, patients split at the median

Row | SMILES | Median Post/Baseline Ratio, SAP [1, 9] | Biomarker change Ratio Range associated with better PFS, SAP [1, 10] | Median Post/Baseline Ratio, SHBG [2, 9] | Biomarker change Ratio Range associated with better PFS, SHBG [2, 10] | Median Post/Baseline Ratio, SCF [3, 9] | Biomarker change Ratio Range associated with better PFS, SCF [3, 10] | Median Post/Baseline Ratio, MMP-9 [4, 9] | Biomarker change Ratio Range associated with better PFS, MMP-9 [4, 10] | Median Post/Baseline Ratio, Myoglobin [5, 9] | Biomarker change Ratio Range associated with better PFS, Myoglobin [5, 10] | maximum tolerated dose [6] | selectivity between activated (tumour) and quiescent (normal) endothelial cells (in words) [7] | tubulin polymerisation inhibition (in words) [8]
1 | COc1cc(C(=O)c2c(C)oc3c(OP(=O)([O-])[O-])c(OC)ccc23)cc(OC)c1OC.[Na+].[Na+] [BNC105P, disodium [6-methoxy-2-methyl-3-(3,4,5-trimethoxybenzoyl)-1-benzofuran-7-yl]phosphate] | 0.95 | ≤0.95 | 0.92 | ≤0.92 | 1.0 | >1 | 1.060 | >1.060 | 0.935 | ≤0.935 | 16 mg/m^2 |  | 
2 | COc1ccc(/C=C\c2cc(OC)c(OC)c(OC)c2)cc1O [Combretastatin A4, reference compound] |  |  |  |  |  |  |  |  |  |  |  | equally potent against quiescent and activated endothelial cells | 
3 | COc1cc(C(=O)c2c(C)oc3c(O)c(OC)ccc23)cc(OC)c1OC [III, 2-methyl-7-hydroxy-3-(3,4,5-trimethoxybenzoyl)-6-methoxybenzofuran] |  |  |  |  |  |  |  |  |  |  |  | show selectivity towards tumor endothelial cells (activated) over normal endothelial cells (quiescent) | potent tubulin polymerisation inhibitors

— patent US10564162B2, “Predictive biomarkers” (BIONOMICS LIMITED, priority 2014, dated 2020)
